Source: patent publication US9434688B2, “Indole derivatives as selective androgen receptor modulators (SARMS)” (Janssen Pharmaceutica, NV, priority 2004, dated 2016)
Several values for one entry are separate records, joined by “and”; a condition that tells them apart may be missing. Equal entries are not always repeated.

molecular target: T1, androgen receptor (Rattus norvegicus, UniProt P15207); assay: Androgen Receptor Binding Using Rat Ventral Prostate Cytosol; set-up: from tissue; host or cells: ventral prostate cytosol of castrated male Sprague Dawley or Wistar rats; details: Rat Cytosol; Concentration 1000 nM
T1 sequence (P15207 1-902): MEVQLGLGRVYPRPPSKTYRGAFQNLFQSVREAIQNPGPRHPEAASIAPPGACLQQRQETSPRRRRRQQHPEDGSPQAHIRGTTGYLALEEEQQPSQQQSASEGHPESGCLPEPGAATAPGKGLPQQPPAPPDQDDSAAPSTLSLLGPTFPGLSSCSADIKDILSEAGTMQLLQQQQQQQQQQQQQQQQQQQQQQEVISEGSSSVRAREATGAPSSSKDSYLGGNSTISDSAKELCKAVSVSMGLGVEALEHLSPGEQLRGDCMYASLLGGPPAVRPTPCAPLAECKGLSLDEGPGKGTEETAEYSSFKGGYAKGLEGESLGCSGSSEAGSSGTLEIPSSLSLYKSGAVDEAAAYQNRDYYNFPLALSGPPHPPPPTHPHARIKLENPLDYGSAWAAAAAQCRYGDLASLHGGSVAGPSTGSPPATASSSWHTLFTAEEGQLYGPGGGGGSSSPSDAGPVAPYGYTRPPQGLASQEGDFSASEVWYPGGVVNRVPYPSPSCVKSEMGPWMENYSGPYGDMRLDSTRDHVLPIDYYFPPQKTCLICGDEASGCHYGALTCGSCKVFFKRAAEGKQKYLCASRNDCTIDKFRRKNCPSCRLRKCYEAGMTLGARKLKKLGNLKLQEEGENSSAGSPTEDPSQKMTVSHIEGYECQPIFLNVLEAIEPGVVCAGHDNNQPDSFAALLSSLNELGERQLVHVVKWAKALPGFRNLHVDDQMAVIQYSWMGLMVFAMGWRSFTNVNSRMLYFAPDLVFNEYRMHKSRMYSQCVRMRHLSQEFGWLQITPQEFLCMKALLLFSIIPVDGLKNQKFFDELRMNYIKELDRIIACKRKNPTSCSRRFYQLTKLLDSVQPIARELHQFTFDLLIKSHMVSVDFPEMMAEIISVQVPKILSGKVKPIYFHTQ
Description: Rat Prostate Cytosol Preparation:
Male Sprague Dawley or Wistar rats (Charles River, 200-300 g) were used for each preparation. The day before preparing the cytosol, the rats were castrated using standard surgical procedures.
The rats were euthanized by carbon dioxide asphyxiation. The rat prostates were quickly removed and placed on ice in pre-chilled, pre-weighed 50 mL plastic tubes. No more than five prostates were placed into one tube. The tubes were then weighed and the prostate tissue wet weights calculated.
To the chilled prostate tissue was then added […] of chilled homogenization buffer. The homogenization buffer was freshly prepared by mixing 10 mM Tris.HCl, pH 7.4, 1 mM sodium molybdate, 1.5 mM EDTA, 1 mM dithiothreitol, 10% (v/v) glycerol and 1% protease inhibitor cocktail (Sigma P 8340).
The prostate tissue was homogenized in a cold room using a pre-chilled Polytron PT3000 homogenizer (Brinkmann). Homogenization was performed at a speed setting of 20, three times for 10 sec bursts. The tubes containing the prostate tissue was kept on ice while homogenizing. The homogenate was allowed to rest on ice for 20 sec between bursts.
The homogenate was then placed into pre-chilled 3 mL polycarbonate ultracentrifuge tubes and centrifuged in the TLA-100 rotor of a TL-100 ultracentrifuge for 12 min at 100,000 rpm at 4° C. The resulting supernatant was stored in 1 mL aliquots at −80° C. until needed.
Binding to the androgen receptor was determined according to the protocol described in Example 86 using the above prepared rat cytosol.
% Inhibition was determined by testing dilutions of the test compound (usually duplicates of 10 μM) in the binding assay. Counts per well were measured and percents of inhibition determined. […] Counts per well were measured and IC50s determined by linear regression.

Row | SMILES | % Inhibition [%]
1 | CC(O)(Sc1ccc(Cl)cc1)c1cc2cc(C#N)c(C(F)(F)F)cc2[nH]1 (racemic) [compound 261] | 14.05
2 | CC(O)(c1cc2cc(C#N)c(C(F)(F)F)cc2[nH]1)S(=O)(=O)c1ccc(Cl)cc1 (racemic) [compound 262] | −8.4
3 | CC(O)(Sc1ccc(Cl)c(Cl)c1)c1cc2cc([N+](=O)[O-])c(C(F)(F)F)cc2[nH]1 (racemic) [compound 254] | 41
4 | CS(=O)(=O)n1c(C2(O)CCN(C(=O)c3ccc(Cl)cc3)CC2)cc2cc(Cl)c(C(F)(F)F)cc21 [compound 24] | 2
5 | CC(O)(c1cc2cc([N+](=O)[O-])c(C(F)(F)F)cc2[nH]1)S(=O)(=O)c1ccc(Cl)c(Cl)c1 (racemic) [compound 255] | 26
6 | CC(O)(Sc1ccccc1)c1cc2cc([N+](=O)[O-])c(C(F)(F)F)cc2[nH]1 (racemic) [compound 258] | 35.4

same assay, conditions: Rat Cytosol; Concentration 3000 nM

Row | SMILES | % Inhibition [%]
7 | CC(O)(Sc1ccc(N)cc1)c1cc2cc(Cl)c(C(F)(F)F)cc2[nH]1 (racemic) [compound 265] | 93.5
8 | CC(C)SC(C)(CO)c1cc2cc([N+](=O)[O-])c(C(F)(F)F)cc2[nH]1 (racemic) [compound 268] | −3.3
9 | CN(C)c1ccc(S(=O)(=O)CC(C)(O)c2cc3cc(Cl)c(C(F)(F)F)cc3[nH]2)cc1 (racemic) [compound 126] | −30
10 | CC(O)(CS(=O)(=O)Cc1ccccc1)c1cc2cc([N+](=O)[O-])c(C(F)(F)F)cc2[nH]1 (racemic) [compound 162] | 0.69
11 | CC(O)(Sc1ccc(N)cc1)c1cc2cc([N+](=O)[O-])c(C(F)(F)F)cc2[nH]1 (racemic) [compound 266] | 12.4

molecular target: T1, androgen receptor; assay: L929 Androgen Receptor Functional Assay, Adenovirus Transduction; format: cell-based; set-up: expressed in transfected cells; host or cells: L929 cells transduced with adenovirus AdEasy+rAR; details: L929 agonist testing; @ 8000 nM
Description: L929 cells were plated in 96-well plates at 20,000 cells per well, in DMEM/F12 (GIBCO) containing 10% (v/v) charcoal-treated fetal bovine serum (Hyclone) and lacking phenol red. The plates were then incubated overnight at 37° C. in 5% (v/v) humidified CO2.
Test compound dilutions were prepared in 100% (v/v) DMSO, if necessary. Each dilution was made to 1250× the final desired assay concentration.
First, 2 mL of DMEM/F12 lacking phenol red was pipetted into the wells of a 2-mL 96-well assay block. Next, 4 μL of the 1250× test compound dilutions were pipetted into each well of the assay block. The mixtures within the well were then carefully mixed by pipette.
In a 15 mL or 50 mL sterile centrifuge tube, a 2.5 nM (2.5×) dilution of R1881 (methyl-trienolone) in DMEM/F12 lacking phenol red was prepared.
In a second 15 mL or 50 mL centrifuge tube a solution containing an equal volume of DMEM to the first and an equal volume of 100% (v/v) DMSO to the volume of R1881 used in the first tube was prepared.
In a 15 mL or 50 mL sterile centrifuge tube, a dilution in DMEM/F12 of the adenovirus AdEasy+rAR at an moi of 1:500 per well was prepared.
The medium was removed from the 96-well plates by inversion and dried, inverted, very briefly. As soon as possible after medium removal, 40 μL of the diluted unlabeled test compound was added to each well, in duplicate. To each well designated for antagonist testing was added 40 μL of the 2.5 nM R1881 dilution to the wells for antagonist testing. To each well designated for agonist testing was added 40 μL of the DMSO dilution. Then 20 μL of the diluted adenovirus were added to all wells. The plates were incubated for 48 hours at 37° C. in 5% (v/v) humidified CO2.
To each well was added 100 μL of Steady-Glo luciferase assay substrate (Promega) and the plates were placed on a rotary shaker for 1 min. The plates were then incubated at room temperature in the dark for one hour. The contents of each well were then transferred to a white microtiter plate (Packard) and read on a Luminoskan Ascent (Thermo Lab Systems).
L929 AR percent activity was determined by testing dilutions of the test compound using a concentration of 3000 nM unless otherwise noted. L929 percent inhibition was determined by testing dilutions of the test compound using a concentration of 3000 nM. […] Luciferase activity per well were measured and EC50s and IC50s determined by linear regression.

Row | SMILES | % Activity
12 | CCSCC(C)(O)c1cc2cc(C#N)c(C(F)(F)F)cc2[nH]1 (single isomer, unassigned) [Compound #217, 2-(2-Ethylsulfanyl-1-hydroxy-1-methyl-ethyl)-6-trifluoromethyl-1H-indole-5-carbonitrile] | 0 @ 8000 nM %

same assay, conditions: L929 agonist testing; concentration of 3000 nM

Row | SMILES | % Activity [%]
13 | CC(O)(Sc1ccc(N)cc1)c1cc2cc(Cl)c(C(F)(F)F)cc2[nH]1 (racemic) [compound 265] | −1
14 | CC(C)SC(C)(CO)c1cc2cc([N+](=O)[O-])c(C(F)(F)F)cc2[nH]1 (racemic) [compound 268] | 9
15 | CN(C)c1ccc(S(=O)(=O)CC(C)(O)c2cc3cc(Cl)c(C(F)(F)F)cc3[nH]2)cc1 (racemic) [compound 126] | −5
16 | CC(O)(CS(=O)(=O)Cc1ccccc1)c1cc2cc([N+](=O)[O-])c(C(F)(F)F)cc2[nH]1 (racemic) [compound 162] | 2
17 | CC(O)(CSc1ccc(C(=O)O)cc1)c1cc2cc(Cl)c(C(F)(F)F)cc2[nH]1 (centres unmarked) [compound 133] | −4
18 | CSCCC(C)(O)c1cc2cc(Cl)c(C(F)(F)F)cc2[nH]1 (racemic) [compound 51] | 2
19 | CC(O)(CS(C)(=O)=O)c1cc2cc(Cl)c(C(F)(F)F)cc2n1S(C)(=O)=O (centres unmarked) [compound 137] | 0
20 | COc1ccc(S(=O)(=O)CC(C)(O)c2cc3cc(Cl)c(C(F)(F)F)cc3n2S(C)(=O)=O)cc1 (centres unmarked) [compound 128] | −4
21 | CC(C)CSCC(C)(O)c1cc2cc([N+](=O)[O-])c(C(F)(F)F)cc2[nH]1 (centres unmarked) [compound 170] | 2
22 | CCS(=O)(=O)CC(C)(O)c1cc2cc(C#N)c(C(F)(F)F)cc2n1C (racemic) [compound 240] | 0
23 | CC(O)(CSCc1ccco1)c1cc2cc([N+](=O)[O-])c(C(F)(F)F)cc2[nH]1 (racemic) [compound 198] | 7
24 | CC(O)(CS(=O)(=O)CC(F)(F)F)c1cc2cc([N+](=O)[O-])c(C(F)(F)F)cc2[nH]1 (racemic) [compound 208] | 1
25 | CSCCC(C)(O)c1cc2cc([N+](=O)[O-])c(C(F)(F)F)cc2[nH]1 (centres unmarked) [compound 47] | 2
26 | CC(O)(Sc1ccc(N)cc1)c1cc2cc([N+](=O)[O-])c(C(F)(F)F)cc2[nH]1 (racemic) [compound 266] | −4
27 | CC(O)(CSc1ccc(C(=O)O)cc1)c1cc2cc(Cl)c(C(F)(F)F)cc2n1S(C)(=O)=O (centres unmarked) [compound 132] | −5
28 | CCCSCC(C)(O)c1cc2cc(Cl)c(C(F)(F)F)cc2[nH]1 (racemic) [compound 196] | 13
29 | CC[S+]([O-])CC(O)c1cc2cc([N+](=O)[O-])c(C(F)(F)F)cc2[nH]1 (mixture of isomers) [compound 180] | 2
30 | CC(O)(CSCC(F)(F)F)c1cc2cc(C#N)c(C(F)(F)F)cc2[nH]1 (racemic) [compound 211] | −1

same assay, conditions: L929 agonist testing; concentration of 3000 nM; 3 µM

Row | SMILES | % Activity
31 | CSC(C)(O)c1cc2cc([N+](=O)[O-])c(C(F)(F)F)cc2[nH]1 (racemic) [compound 267] | −5% and 0%

same assay, conditions: L929 antagonist testing with R1881

Row | SMILES | IC50 [µM]
32 | CC[S+]([O-])CC(C)(O)c1[nH]c2cc(C(F)(F)F)c(C#N)cc2c1C (centres unmarked) [compound 252] | 3.1
